Source: ChEMBL document CHEMBL3758143, “5-Iodo-2-arylalkylthio-6-aryl pyrimidin-4(3H)-ones as non-nucleoside anti-HBV agents” (Medchemcomm, 2015)
Calls of active or inactive are those of the source. No cut-off for these calls is given here.

Columns and labels:
Hepatitis B virus [1] = experiment: Antiviral activity against Hepatitis B virus in human HepAD38 cells assessed as inhibition of extracellular viral replication at 10 uM incubated for 2 days followed by 3 day incubation with fresh medium containing compound for 72 hrs by qRT-PCR analysis; assay type: functional
Hepatitis B virus [2] = experiment: Effect on transcription level in Hepatitis B virus assessed as pgRNA level in human HuH7 cells after 48 hrs by qRT-PCR analysis; assay type: functional, organism-based; details: Huh-7
Hepatitis B virus [3] = experiment: Antiviral activity against Hepatitis B virus in human HuH7 cells assessed as reduction in HBeAg secretion incubated for 2 days followed by 3 day incubation with fresh medium containing compound for 7 days by time-resolved fluoro-immunoassay; assay type: functional, organism-based; details: Huh-7
Hepatitis B virus [4] = experiment: Antiviral activity against Hepatitis B virus in human HepAD38 cells assessed as inhibition of extracellular viral replication incubated for 2 days followed by 3 day incubation with fresh medium containing compound for 72 hrs by qRT-PCR analysis; assay type: functional, organism-based
Hepatitis B virus [5] = experiment: Antiviral activity against Hepatitis B virus in human HuH7 cells assessed as reduction in HBeAg secretion at 25 uM incubated for 2 days followed by 3 day incubation with fresh medium containing compound for 7 days by time-resolved fluoro-immunoassay; assay type: functional, organism-based; details: Huh-7
Hepatitis B virus [6] = experiment: Antiviral activity against Hepatitis B virus in human HuH7 cells assessed as inhibition of intracellular viral replication at 2.5 and 25 uM after 48 hrs by qRT-PCR analysis; assay type: functional, organism-based; details: Huh-7
Hepatitis B virus [7] = experiment: Antiviral activity against Hepatitis B virus in human HuH7 cells assessed as reduction in HBsAg secretion at 25 uM incubated for 2 days followed by 3 day incubation with fresh medium containing compound for 7 days by time-resolved fluoro-immunoassay; assay type: functional, organism-based; details: Huh-7
[8] = Cytotoxicity against human HepAD38 cells after 7 days by MTT assay; assay type: cell-based
[9] = Selectivity index, ratio of CC50 for human HepAD38 cells to EC50 for Hepatitis B virus; assay type: toxicity, cell-based; details: read-out: Ratio CC50/EC50

**Q.** Which inhibition at 10 µM (Hepatitis B virus [1]) does the source give for `COc1ccc(Cc2nc(SCc3ccc(C(F)(F)F)cc3)[nH]c(=O)c2I)cc1OC` here?
**A.** Its inhibition at 10 µM is 54%.

**Q.** Which Activity (Hepatitis B virus [2]) does the source give for `O=c1[nH]c(SCCOc2ccc([N+](=O)[O-])cc2)nc(Cn2nnc3ccccc32)c1I` here?
**A.** The Activity was “inactive”.

**Q.** What about the Activity (Hepatitis B virus [3]) of the same compound?
**A.** Its Activity is “Dose-dependent effect”.

**Q.** And the EC50 (Hepatitis B virus [4])?
**A.** Its EC50 is 0.469 µM.

**Q.** What about the inhibition at 10 µM (Hepatitis B virus [1]) of the same compound?
**A.** Its inhibition at 10 µM is 74%.

**Q.** And the Activity (Hepatitis B virus [5])?
**A.** Its Activity is “Active”.

**Q.** And the Activity (Hepatitis B virus [6])?
**A.** The Activity was “Active”.

**Q.** What about the Activity (Hepatitis B virus [7]) of the same compound?
**A.** The Activity was “Active”.

**Q.** What about the CC50 at 168 h [8] of the same compound?
**A.** Its CC50 at 168 h is 52 µM.

**Q.** And the selectivity ratio [9]?
**A.** Its selectivity ratio is 111.

**Q.** With `COc1ccc(Cc2nc(SC3C=CCCC3)[nH]c(=O)c2I)cc1OC` (configuration not stated) as the compound, how does the inhibition at 10 µM (Hepatitis B virus [1]) read?
**A.** Its inhibition at 10 µM is 52%.

**Q.** For `N#Cc1ccc(CSc2nc(Cc3cc(F)cc(F)c3)c(I)c(=O)[nH]2)cc1`, which inhibition at 10 µM (Hepatitis B virus [1]) is on record?
**A.** The inhibition at 10 µM was 14%.

**Q.** With `COc1ccc(Cc2nc(SCc3ccccc3[N+](=O)[O-])[nH]c(=O)c2I)cc1OC` as the compound, how does the inhibition at 10 µM (Hepatitis B virus [1]) read?
**A.** Its inhibition at 10 µM is 62%.

**Q.** With `Cc1cc(C)cc(Cc2nc(SCc3ccc(C#N)cc3)[nH]c(=O)c2I)c1` as the compound, how does the inhibition at 10 µM (Hepatitis B virus [1]) read?
**A.** The inhibition at 10 µM was 33%.

**Q.** Which inhibition at 10 µM (Hepatitis B virus [1]) does the source give for `O=c1[nH]c(SCc2ccc([N+](=O)[O-])cc2)nc(Cc2cc(F)cc(F)c2)c1I` here?
**A.** The inhibition at 10 µM was 47%.

**Q.** Which inhibition (Hepatitis B virus [1]) does the source give for `COc1cccc(CSc2nc(Cc3ccc(OC)c(OC)c3)c(I)c(=O)[nH]2)c1` here?
**A.** The inhibition was “inactive”.

**Q.** For `O=c1[nH]c(SCc2ccc([N+](=O)[O-])cc2)nc(Cn2nnc3ccccc32)c1I`, which inhibition at 10 µM (Hepatitis B virus [1]) is on record?
**A.** Its inhibition at 10 µM is 49%.

**Q.** Which inhibition (Hepatitis B virus [1]) does the source give for `COc1ccc(Cc2nc(SCCOc3ccc(Br)cc3)[nH]c(=O)c2I)cc1OC` here?
**A.** Its inhibition is “inactive”.

**Q.** For `O=c1[nH]c(SCc2ccc(I)cc2)nc(Cn2nnc3ccccc32)c1I`, which inhibition at 10 µM (Hepatitis B virus [1]) is on record?
**A.** Its inhibition at 10 µM is 34%.

**Q.** Which inhibition at 10 µM (Hepatitis B virus [1]) does the source give for `O=c1[nH]c(SCCOc2ccc([N+](=O)[O-])cc2)nc(Cc2cc(F)cc(F)c2)c1I` here?
**A.** The inhibition at 10 µM was 9%.

**Q.** For `O=c1[nH]c(SCc2ccc([N+](=O)[O-])cc2)nc(Cc2ccccc2)c1I`, which inhibition (Hepatitis B virus [1]) is on record?
**A.** The inhibition was “inactive”.

**Q.** Which EC50 (Hepatitis B virus [4]) does the source give for `COc1ccc(Cc2nc(SCc3cccc(Cl)c3)[nH]c(=O)c2I)cc1OC` here?
**A.** The EC50 was 4.28 µM.

**Q.** What about the inhibition at 10 µM (Hepatitis B virus [1]) of the same compound?
**A.** The inhibition at 10 µM was 65%.

**Q.** And the CC50 at 168 h [8]?
**A.** The CC50 at 168 h was 119 µM.

**Q.** And the selectivity ratio [9]?
**A.** The selectivity ratio was 27.8.

**Q.** For `N#Cc1ccc(CSc2nc(Cc3ccccc3)c(I)c(=O)[nH]2)cc1`, which inhibition at 10 µM (Hepatitis B virus [1]) is on record?
**A.** Its inhibition at 10 µM is 63%.

**Q.** With `O=c1[nH]c(SCCOc2ccc(Br)cc2)nc(Cn2nnc3ccccc32)c1I` as the compound, how does the inhibition at 10 µM (Hepatitis B virus [1]) read?
**A.** Its inhibition at 10 µM is 31%.

**Q.** Which EC50 (Hepatitis B virus [4]) does the source give for `Nc1ccn([C@H]2CS[C@@H](CO)O2)c(=O)n1` here?
**A.** The EC50 was 0.731 µM.

**Q.** And the inhibition at 10 µM (Hepatitis B virus [1])?
**A.** Its inhibition at 10 µM is 88%.

**Q.** And the CC50 at 168 h [8]?
**A.** The CC50 at 168 h was greater than 100 µM.

**Q.** What about the selectivity ratio [9] of the same compound?
**A.** The selectivity ratio was greater than 137.

**Q.** For `Cc1ccc(OCCSc2nc(Cn3nnc4ccccc43)c(I)c(=O)[nH]2)cc1`, which inhibition at 10 µM (Hepatitis B virus [1]) is on record?
**A.** Its inhibition at 10 µM is 35%.

**Q.** Which inhibition at 10 µM (Hepatitis B virus [1]) does the source give for `COc1cc(CSc2nc(Cc3ccc(OC)c(OC)c3)c(I)c(=O)[nH]2)cc(OC)c1` here?
**A.** The inhibition at 10 µM was 41%.

**Q.** Which inhibition at 10 µM (Hepatitis B virus [1]) does the source give for `N#Cc1ccc(CSc2nc(Cn3nnc4ccccc43)c(I)c(=O)[nH]2)cc1` here?
**A.** The inhibition at 10 µM was 27%.

**Q.** With `Cc1cc(C)cc(Cc2nc(SCc3ccc([N+](=O)[O-])cc3)[nH]c(=O)c2I)c1` as the compound, how does the inhibition at 10 µM (Hepatitis B virus [1]) read?
**A.** The inhibition at 10 µM was 25%.

**Q.** With `O=c1[nH]c(SCc2ccc(C(F)(F)F)cc2)nc(Cn2nnc3ccccc32)c1I` as the compound, how does the inhibition (Hepatitis B virus [1]) read?
**A.** Its inhibition is “inactive”.

**Q.** For `COc1ccc(Cc2nc(SCCOc3ccc(C)cc3)[nH]c(=O)c2I)cc1OC`, which inhibition at 10 µM (Hepatitis B virus [1]) is on record?
**A.** The inhibition at 10 µM was 49%.

**Q.** For `COc1ccc(Cc2nc(SCc3ccc(I)cc3)[nH]c(=O)c2I)cc1OC`, which inhibition at 10 µM (Hepatitis B virus [1]) is on record?
**A.** The inhibition at 10 µM was 17%.

**Q.** Which Activity (Hepatitis B virus [2]) does the source give for `COc1ccc(Cc2nc(SCc3ccc([N+](=O)[O-])cc3)[nH]c(=O)c2I)cc1OC` here?
**A.** Its Activity is “inactive”.

**Q.** What about the Activity (Hepatitis B virus [3]) of the same compound?
**A.** Its Activity is “Dose-dependent effect”.

**Q.** What about the EC50 (Hepatitis B virus [4]) of the same compound?
**A.** Its EC50 is 0.376 µM.

**Q.** What about the inhibition at 10 µM (Hepatitis B virus [1]) of the same compound?
**A.** The inhibition at 10 µM was 81%.

**Q.** And the Activity (Hepatitis B virus [5])?
**A.** Its Activity is “Active”.

**Q.** What about the Activity (Hepatitis B virus [6]) of the same compound?
**A.** Its Activity is “Active”.

**Q.** And the Activity (Hepatitis B virus [7])?
**A.** The Activity was “Active”.

**Q.** And the CC50 at 168 h [8]?
**A.** Its CC50 at 168 h is 124 µM.

**Q.** What about the selectivity ratio [9] of the same compound?
**A.** The selectivity ratio was 330.

**Q.** With `COc1ccc(Cc2nc(SCCOc3ccc([N+](=O)[O-])cc3)[nH]c(=O)c2I)cc1OC` as the compound, how does the inhibition at 10 µM (Hepatitis B virus [1]) read?
**A.** The inhibition at 10 µM was 6%.

**Q.** For `Cc1cc(C)cc(Cc2nc(SCCOc3ccc([N+](=O)[O-])cc3)[nH]c(=O)c2I)c1`, which inhibition at 10 µM (Hepatitis B virus [1]) is on record?
**A.** The inhibition at 10 µM was 20%.

**Q.** With `COc1ccc(Cc2nc(SC3CCCCCC3)[nH]c(=O)c2I)cc1OC` as the compound, how does the EC50 (Hepatitis B virus [4]) read?
**A.** The EC50 was 40.8 µM.

**Q.** What about the inhibition at 10 µM (Hepatitis B virus [1]) of the same compound?
**A.** Its inhibition at 10 µM is 31%.

**Q.** And the CC50 at 168 h [8]?
**A.** The CC50 at 168 h was 98 µM.

**Q.** And the selectivity ratio [9]?
**A.** Its selectivity ratio is 2.4.

**Q.** What does the source list for `COc1ccc(Cc2nc(SCc3ccc(C#N)cc3)[nH]c(=O)c2I)cc1OC`?
**A.** EC50 (Hepatitis B virus [4]): 4.84 µM; inhibition at 10 µM (Hepatitis B virus [1]): 67%; CC50 at 168 h [8]: 92 µM; selectivity ratio [9]: 19

**Q.** For `O=c1[nH]c(SCCOc2ccc([N+](=O)[O-])cc2)nc(Cc2ccccc2)c1I`, which inhibition at 10 µM (Hepatitis B virus [1]) is on record?
**A.** The inhibition at 10 µM was 13%.

**Q.** For `COc1cc(CSc2nc(Cn3nnc4ccccc43)c(I)c(=O)[nH]2)cc(OC)c1`, which EC50 (Hepatitis B virus [4]) is on record?
**A.** The EC50 was 12.2 µM.

**Q.** And the inhibition at 10 µM (Hepatitis B virus [1])?
**A.** Its inhibition at 10 µM is 59%.

**Q.** And the CC50 at 168 h [8]?
**A.** Its CC50 at 168 h is 146 µM.

**Q.** And the selectivity ratio [9]?
**A.** Its selectivity ratio is 12.
